Experimental data published in US20010055776A1, “High throughput cell-based assay kits” (priority 2000, published 2001).

Tested on: hemoglobin synthesis in human erythroid progenitors
Test: Filter plate assay of hemoglobin (HbA) in differentiating erythroid progenitors with Europium-labeled anti-hemoglobin
Type: cell-based
Details: 168 h, 0.5 mM succinylacetone, 1,000 cells/well, 3.0 μm PCF filter plate, IL-3, IL-6, SCF, EPO, 7 days, read-out: succinylacetone-mediated inhibition of hemoglobin
Experimental: FIG. 6. Adult hemoglobin (HbA) expression by differentiating human erythroid progenitors. Cryopreserved progenitors were thawed and seeded into wells of a 96-well PCF filter plate at a density of 1,000 cells/well and cultured in the presence of IL-3, IL-6, EPO, and SCF ±/−0.5 mM succinylacetone. Hemoglobin was assayed by the filter plate procedure on day 7.
To establish the linearity of the assay relative to cell number, peripheral blood erythrocytes were seeded into wells of PCF filter plates (0.4 μm pore size for peripheral blood erythrocytes and 3.0 μm pore size for progenitor cells), fixed with 0.1 ml 1% formaldehyde for 30 minutes and then washed once with Hank's balanced salt solution (HBSS) (0.2 ml/well) and twice with HBSS containing 0.1% bovine serum albumin (BSA). All washes were done in a Millipore Silent Screen vacuum manifold with a vacuum pressure of 5″ Hg.
The cells were then permeabilized by incubation with 0.2 ml 0.1% Triton X-100 in HBSS-BSA for 10 minutes at room temperature. […] Enhancement Solution (Wallac) was added (0.1 ml/well), and after 5 minutes Europium fluorescence (excitation at […] and emission at 615 nm) was measured over a 400 μsecond time period after an initial delay of 400 μseconds with a Wallac Victor spectrofluorimeter. […]

## CC(=O)CC(=O)CCC(=O)O [succinylacetone]
  inhibition at 500 µM: 86%
